Measured values: patent US11459586B2, “Methods for increasing efficiency of nuclease-mediated gene editing in stem cells” (President and Fellows of Harvard College, priority 2016, dated 2022)

System: human iPSC
Assay: gene targeting (mThy1, mCD147) in hiPSC transiently transfected with Cas9-IRES-anti-apoptotic gene plasmids
Format: cell-based
Procedure: FIGS. 4A-D. Bcl-2 overexpression increases HR-mediated gene targeting in human iPSC when transiently transfected with the Cas9 nuclease. FIG. 4A. Mouse Thy1 gene targeting scheme. FIG. 4B. Plasmids were constructed to constitutively express Cas9 together with an anti-apoptotic gene (separated by an IRES) under the constitutively active EF1α promoter. Plain human iPSC were nucleofected with 0.5 μg of one of these Cas9 plasmids together with 2 μg of the mThy1 targeting vector and 1.5 μg of plasmids expressing the Thy1 Left, Right, both, or no sgRNAs (pUC19). Five days later, cells were analyzed by flow cytometry. FIG. 4C. Flow cytometry staining for mThy1 and hThy1 for the Cas9 only sample gated on live single cells; the percent of cells in each quadrant is indicated. […] FIG. 4D. Compiled gene editing frequencies. The percent of mThy1^+hThy1^− (bottom portion of each bar in the left, center, and right grafts), mThy1^+hThy1^+ (top portion of bars in the left and center graphs), and mThy1^−hThy1^− (top portion of bars in the right graph) cells is graphed for each indicated sample. Lines mark the percentages for the Cas9 only sample. Results are representative of two independent experiments.
FIGS. 8A-F. Wild type Bcl-2 improves gene targeting at various genomic loci across multiple hiPSC lines. FIG. 8A. Plasmids were constructed to constitutively express the Cas9 nuclease with a form of Bcl-2 (separated by an IRES), and a sgRNA. Three human iPSC lines were nucleofected with 2 μg of mThy1 or mCD147 targeting vector and 2 μg of “Cas9 sgRNA” or “Cas9 Bcl-2 sgRNA” expression plasmid. 5-9 days later, cells were analyzed by flow cytometry. FIG. 8B. Mouse Thy1 gene targeting scheme. FIG. 8C. Single amino acid mutations were generated for the Bcl-2 BH1 (G145A) or BH4 (Y28A) domains. Compiled gene editing frequencies for cells transfected with the Left, Right, or Both Thy1 sgRNAs. The percent of mThy1^+hThy1^− (bottom portion of each set of bars in each graph), mThy1^+hThy1^+ (top portion of left and center sets of bars in each graph and center portion of right set of bars in each graph), and mThy1^−hThy1^− (top portion of right set of bars in each graph) cells among the various samples is indicated. FIG. 8D. Mouse CD147 gene targeting scheme. FIG. 8E. Flow cytometry staining for mCD147 and hCD147 for retrovirally-derived PGP1 hiPSC transfected with “Cas9 sgRNA” or “Cas9 Bcl-2 sgRNA”. Samples are gated on live single cells; the percent of cells in each quadrant is indicated. FIG. 8F. Compiled gene editing frequencies for cells transfected with the Left, Right, or both CD147 sgRNAs. The percent of mCD147^+hCD147^− (bottom portion of each set of bars in each graph), mCD147^+hCD147^+ (top portion of left and center sets of bars in each graph and center portion of right set of bars in each graph), and mCD147^−hCD147^− (top portion of right set of bars in each graph) cells among the three hiPSC lines is indicated.
PCR reactions were done using polymerase sold under the trademark KAPA HIFI™ HotStart polymerase; primers and double-stranded DNA fragments sold under the trademark GBLOCKS® are from IDT. Plasmids were constructed using isothermal assembly, transformed into Stbl3 competent E. coli (Invitrogen), grown at 30° C., and verified by Sanger sequencing (Genewiz). Anti-apoptotic genes were obtained from previously published plasmids: Bcl-2 (Addgene plasmid #8793) and Bcl-xL (#8790) (Cheng et al., 2001); Bcl2A1 (#36973) (Pratt et al., 2012); and Mcl-1 (#21605) (Maurer et al., 2006). The dominant negative p53 sequence from Addgene plasmid #9058 (Hahn et al., 2002) was synthesized as a gBlock. These genes were cloned into the EF1α promoter-Cas9 nuclease plasmid after an IRES.
The U6 promoter-sgRNA (for each sgRNA sequence) was cloned into the EF1α promoter-Cas9 nuclease or EF1α promoter-Cas9 nuclease-IRES-Bcl-2 expression plasmids to form the “Cas9 only sgRNA” or “Cas9 Bcl-2 sgRNA” plasmids used in Examples 6 and 7. […]

## Bcl-2: B cell lymphoma 2 protein, anti-apoptotic, overexpressed from lentivirus or Cas9 plasmid
Bcl-2 on the Cas9 plasmid, PGP4 hiPSC line
  gene targeting at the CD147 and Thy1 loci: markedly improved gene targeting
Bcl-2 on the Cas9 plasmid, retroviral and non-integrating PGP1 hiPSC lines
  mCD147 gene targeting frequencies: substantially and reproducibly increased gene targeting frequencies
Cas9 Bcl-2 sgRNA plasmids, transient transfection
  mThy1 gene targeting, wild type vs mutant Bcl-2: greatest enhancement
Transient transfection of Cas9-IRES-anti-apoptotic factor plasmid
  mThy1 gene targeting frequencies compared to Cas9 only controls: the only anti-apoptotic factor that increased gene targeting frequencies
